We go through ten compounds from ChEMBL document CHEMBL1138545, “Synthesis and antimicrobial activities of some new triazolothiadiazoles bearing 4-methylthiobenzyl moiety” (2009).

For assay [1], the system named is Klebsiella pneumoniae. As to the kind of experiment: Antibacterial activity against Klebsiella pneumoniae at 10 ug/mL after 24 hrs by the disk diffusion method. The class given is functional. (A growth-free zone around the sample is the usual read-out of agar diffusion tests.)
The test system of assay [2] is Escherichia coli. As to the kind of experiment: microbe, parasite or virus in culture. The note with it: ATTC 25922, 24 h.
Description: Antibacterial activity against Escherichia coli ATTC 25922 at 10 ug/mL after 24 hrs by the disk diffusion method
Assay [3] concerns Staphylococcus aureus. Put plainly: microbe, parasite or virus in culture. The note with it: ATTC 25922, 24 h.
Description: Antibacterial activity against Staphylococcus aureus ATTC 25922 at 10 ug/mL after 24 hrs by the disk diffusion method
The subject of assay [4] is Pseudomonas aeruginosa. As to the kind of experiment: microbe, parasite or virus in culture. The settings on record: ATTC 27853, 24 h, read-out: IZ.
Description: Antibacterial activity against Pseudomonas aeruginosa ATTC 27853 at 10 ug/mL after 24 hrs by the disk diffusion method
Assay [5] deals with Escherichia coli. As to the kind of experiment: Antibacterial activity against Escherichia coli ATTC 25922 after 24 hrs by the disk diffusion method. The note with it: for MIC: Escherichia coli, ATTC 25922, 24 h. The assay is classed as functional.
The test system of assay [6] is Staphylococcus aureus. Put plainly: Antibacterial activity against Staphylococcus aureus ATTC […] after 24 hrs by the disk diffusion method. The note with it: for MIC: Staphylococcus aureus, 24 h. The class given is functional.
Assay [7] relates to Pseudomonas aeruginosa. As to the kind of experiment: Antibacterial activity against Pseudomonas aeruginosa ATTC 27853 after 24 hrs by the disk diffusion method. The assay is classed as functional. The note with it: for MIC: Pseudomonas aeruginosa, ATTC 27853, 24 h.
Assay [8] relates to Klebsiella pneumoniae. As to the kind of experiment: Antibacterial activity against Klebsiella pneumoniae after 24 hrs by the disk diffusion method. The assay is classed as functional. The settings on record: for MIC: Klebsiella pneumoniae, 24 h.
A further assay deals with Candida albicans. As to the kind of experiment: Antifungal activity against Candida albicans NICM 300 after 3 to days by serial plate dilution method. The assay is classed as functional. The note with it: for MIC: Candida albicans, NICM 300.
For a further assay, the system named is Aspergillus fumigatus. As to the kind of experiment: Antifungal activity against Aspergillus fumigatus NICM 902 after 3 to days by serial plate dilution method. The assay is classed as functional. The settings on record: for MIC: Aspergillus fumigatus, NICM 902.
A further assay concerns Aspergillus flavus. As to the kind of experiment: Antifungal activity against Aspergillus flavus NICM 524 after 3 to days by serial plate dilution method. The note with it: for MIC: Aspergillus flavus, NICM 524. The assay is classed as functional.
Assay [9] deals with Trichophyton mentagrophytes. Put plainly: Antifungal activity against Trichophyton mentagrophytes after 3 to days by serial plate dilution method. The note with it: for MIC: Trichophyton mentagrophytes. The class given is functional.

Values after ≈ are worked out from the molar mass of the structure shown.

With `O=C(O)c1cn(C2CC2)c2cc(N3CCNCC3)c(F)cc2c1=O` [CIPROFLOXACIN], the figures for the MIC in the assay on Klebsiella pneumoniae [1], against Escherichia coli [2] and in the assay with Staphylococcus aureus [3] were 6 µg/mL (≈ 18.1 µM), 6 µg/mL (≈ 18.1 µM) and 12.5 µg/mL (≈ 37.7 µM), respectively. Besides, the zone of inhibition at 10 µg/mL in the assay with Klebsiella pneumoniae [1] (read-out: IZ) amounted to 25 mm; in the assay on Staphylococcus aureus [3] (read-out: IZ), 19 mm; with Pseudomonas aeruginosa [4] it was 18 mm.

Consider `CSc1ccc(Cc2nnc3sc(-c4ccc(-c5ccccc5C(F)(F)F)o4)nn23)cc1`, for which the “inhibition zone (IZ)” value with Escherichia coli [5] was 18 mm; in the assay with Staphylococcus aureus [6] it was 19 mm; in the assay with Pseudomonas aeruginosa [7], 18 mm; in the assay on Klebsiella pneumoniae [8], 25 mm. For the same compound, the MIC against Escherichia coli [5] worked out at 12.5 µg/mL (≈ 26.5 µM); against Staphylococcus aureus [6], 12.5 µg/mL (≈ 26.5 µM); against Pseudomonas aeruginosa [7] it was 6 µg/mL (≈ 12.7 µM); against Klebsiella pneumoniae [8], 6 µg/mL (≈ 12.7 µM); against Candida albicans, 25 µg/mL (≈ 52.9 µM); against Aspergillus fumigatus, 6 µg/mL (≈ 12.7 µM). Besides, the MIC is 25 µg/mL (≈ 52.9 µM) in the assay on Aspergillus flavus and 6 µg/mL (≈ 12.7 µM) in [9]. The “diameter of the inhibition zone (DIZ)” value in the assay on Candida albicans is listed as 15 mm; in the assay on Aspergillus fumigatus it was 20 mm; in the assay on Aspergillus flavus it was 11 mm; in assay [9], 20 mm.

For `CSc1ccc(Cc2nn3c(Cc4ccc(SC)cc4)nnc3s2)cc1`, the “inhibition zone (IZ)” value in the assay on Escherichia coli [5] is listed as 16 mm; in the assay on Staphylococcus aureus [6] it was 18 mm; in the assay with Pseudomonas aeruginosa [7], 18 mm; with Klebsiella pneumoniae [8], 13 mm. Also, the MIC was 12.5 µg/mL (≈ 31.4 µM) against Escherichia coli [5]; 12.5 µg/mL (≈ 31.4 µM) in the assay on Staphylococcus aureus [6]; 6 µg/mL (≈ 15.1 µM) with Pseudomonas aeruginosa [7]; 25 µg/mL (≈ 62.7 µM) in the assay on Klebsiella pneumoniae [8]; 6 µg/mL (≈ 15.1 µM) against Candida albicans; 6 µg/mL (≈ 15.1 µM) against Aspergillus fumigatus. Moreover, the MIC came to 25 µg/mL (≈ 62.7 µM) in the assay with Aspergillus flavus and 6 µg/mL (≈ 15.1 µM) in assay [9]. The “diameter of the inhibition zone (DIZ)” value stood at 19 mm in the assay with Candida albicans, 22 mm in the assay with Aspergillus fumigatus, 17 mm with Aspergillus flavus and 20 mm in assay [9].

As for `CSc1ccc(Cc2nnc3sc(-c4ccc(-c5cc(Cl)c(Cl)cc5Cl)o4)nn23)cc1`, the “inhibition zone (IZ)” value is listed as 12 mm in the assay with Escherichia coli [5], 13 mm in the assay with Staphylococcus aureus [6], 10 mm in the assay with Pseudomonas aeruginosa [7] and 10 mm in the assay on Klebsiella pneumoniae [8]. In addition, the MIC in the assay with Escherichia coli [5], with Staphylococcus aureus [6], with Pseudomonas aeruginosa [7], in the assay on Klebsiella pneumoniae [8], in the assay with Candida albicans and in the assay on Aspergillus fumigatus was 25 µg/mL (≈ 49.2 µM) each time. Besides, the MIC in the assay with Aspergillus flavus stood at 12.5 µg/mL (≈ 24.6 µM); in assay [9], 25 µg/mL (≈ 49.2 µM). Also, the “diameter of the inhibition zone (DIZ)” value with Candida albicans is listed as 12 mm; with Aspergillus fumigatus, 12 mm; in the assay on Aspergillus flavus, 17 mm; in [9], 17 mm.

In the case of `COc1ccc(-c2ccc(-c3nn4c(Cc5ccc(SC)cc5)nnc4s3)o2)c([N+](=O)[O-])c1`, the “inhibition zone (IZ)” value with Escherichia coli [5] was found to be 13 mm; in the assay on Staphylococcus aureus [6], 12 mm; in the assay with Pseudomonas aeruginosa [7], 12 mm; with Klebsiella pneumoniae [8], 21 mm. Besides, the MIC in the assay on Escherichia coli [5] was 25 µg/mL (≈ 52.1 µM); in the assay with Staphylococcus aureus [6], 25 µg/mL (≈ 52.1 µM); in the assay with Pseudomonas aeruginosa [7], 25 µg/mL (≈ 52.1 µM); in the assay with Klebsiella pneumoniae [8], 6 µg/mL (≈ 12.5 µM); with Candida albicans, 25 µg/mL (≈ 52.1 µM); against Aspergillus fumigatus, 12.5 µg/mL (≈ 26.1 µM). In addition, the MIC (in the assay with Aspergillus flavus; in assay [9]) was 25 µg/mL (≈ 52.1 µM) in each case. Also, the “diameter of the inhibition zone (DIZ)” value with Candida albicans is 17 mm; in the assay with Aspergillus fumigatus it was 19 mm; with Aspergillus flavus, 12 mm; in assay [9], 15 mm.

As for `CSc1ccc(Cc2nnc3sc(-c4ccc(O)cc4)nn23)cc1`, the “inhibition zone (IZ)” value amounted to 10 mm with Escherichia coli [5], 12 mm in the assay with Staphylococcus aureus [6], 12 mm in the assay with Pseudomonas aeruginosa [7] and 17 mm in the assay on Klebsiella pneumoniae [8]. Also, the MIC worked out at 25 µg/mL (≈ 70.5 µM) in the assay with Escherichia coli [5]; 25 µg/mL (≈ 70.5 µM) against Staphylococcus aureus [6]; 25 µg/mL (≈ 70.5 µM) against Pseudomonas aeruginosa [7]; 25 µg/mL (≈ 70.5 µM) against Klebsiella pneumoniae [8]; 6 µg/mL (≈ 16.9 µM) in the assay on Candida albicans; 6 µg/mL (≈ 16.9 µM) in the assay with Aspergillus fumigatus. In addition, the values for the MIC (with Aspergillus flavus; in [9]) were 12.5 µg/mL (≈ 35.3 µM) and 6 µg/mL (≈ 16.9 µM), respectively. Also, the “diameter of the inhibition zone (DIZ)” value in the assay on Candida albicans is 20 mm; in the assay with Aspergillus fumigatus, 22 mm; in the assay with Aspergillus flavus, 18 mm; in assay [9] it was 18 mm.

In the case of `CSc1ccc(Cc2nnc3sc(-c4ccc(Cl)c(Cl)c4Cl)nn23)cc1`, the “inhibition zone (IZ)” value in the assay with Escherichia coli [5] is recorded as 19 mm; in the assay on Staphylococcus aureus [6] it was 18 mm; with Pseudomonas aeruginosa [7], 17 mm; in the assay on Klebsiella pneumoniae [8], 24 mm. Besides, the MIC was determined as 12.5 µg/mL (≈ 28.3 µM) against Escherichia coli [5]; 12.5 µg/mL (≈ 28.3 µM) in the assay on Staphylococcus aureus [6]; 12.5 µg/mL (≈ 28.3 µM) against Pseudomonas aeruginosa [7]; 6 µg/mL (≈ 13.6 µM) in the assay with Klebsiella pneumoniae [8]; 25 µg/mL (≈ 56.6 µM) in the assay with Candida albicans; 25 µg/mL (≈ 56.6 µM) against Aspergillus fumigatus. The MIC (in the assay on Aspergillus flavus; in [9]) was 25 µg/mL (≈ 56.6 µM) each time. For the same compound, the “diameter of the inhibition zone (DIZ)” value in the assay on Candida albicans was determined as 10 mm; with Aspergillus fumigatus it was 13 mm; with Aspergillus flavus, 15 mm; in [9], 17 mm.

Regarding `CSc1ccc(Cc2nnc3sc(-c4ccc([N+](=O)[O-])cc4)nn23)cc1`, the “inhibition zone (IZ)” value in the assay on Escherichia coli [5] is 17 mm; in the assay with Staphylococcus aureus [6], 16 mm; with Pseudomonas aeruginosa [7], 18 mm; with Klebsiella pneumoniae [8], 13 mm. For the same compound, the MIC in the assay on Escherichia coli [5] came out at 12.5 µg/mL (≈ 32.6 µM); with Staphylococcus aureus [6], 12.5 µg/mL (≈ 32.6 µM); in the assay on Pseudomonas aeruginosa [7], 6 µg/mL (≈ 15.6 µM); in the assay with Klebsiella pneumoniae [8] it was 12.5 µg/mL (≈ 32.6 µM); with Candida albicans, 25 µg/mL (≈ 65.2 µM); in the assay on Aspergillus fumigatus, 25 µg/mL (≈ 65.2 µM). The MIC (with Aspergillus flavus; in assay [9]) was 25 µg/mL (≈ 65.2 µM) throughout. In addition, the “diameter of the inhibition zone (DIZ)” value amounted to 14 mm with Candida albicans, 15 mm in the assay on Aspergillus fumigatus, 11 mm in the assay with Aspergillus flavus and 11 mm in assay [9].

For the compound `CSc1ccc(Cc2nnc3sc(-c4ccc(-c5ccc(Cl)cc5)o4)nn23)cc1`, the “inhibition zone (IZ)” value was 20 mm with Escherichia coli [5], 18 mm in the assay with Staphylococcus aureus [6], 18 mm in the assay with Pseudomonas aeruginosa [7] and 22 mm with Klebsiella pneumoniae [8]. The MIC in the assay with Escherichia coli [5] was 6 µg/mL (≈ 13.7 µM); against Staphylococcus aureus [6], 12.5 µg/mL (≈ 28.5 µM); against Pseudomonas aeruginosa [7], 6 µg/mL (≈ 13.7 µM); against Klebsiella pneumoniae [8], 12.5 µg/mL (≈ 28.5 µM); in the assay with Candida albicans it was 25 µg/mL (≈ 57 µM); in the assay on Aspergillus fumigatus it was 12.5 µg/mL (≈ 28.5 µM). In addition, the MIC (against Aspergillus flavus; in [9]) was 25 µg/mL (≈ 57 µM) throughout. In addition, the “diameter of the inhibition zone (DIZ)” value in the assay on Candida albicans turned out to be 12 mm; in the assay with Aspergillus fumigatus, 17 mm; in the assay with Aspergillus flavus, 10 mm; in assay [9] it was 16 mm.

Turning to `CSc1ccc(Cc2nnc3sc(-c4ccc(-c5cc(Cl)ccc5Cl)o4)nn23)cc1`, the “inhibition zone (IZ)” value in the assay with Escherichia coli [5] is 16 mm; with Staphylococcus aureus [6], 16 mm; with Pseudomonas aeruginosa [7], 18 mm; in the assay on Klebsiella pneumoniae [8], 20 mm. Further, the MIC was determined as 12.5 µg/mL (≈ 26.4 µM) against Escherichia coli [5]; 25 µg/mL (≈ 52.8 µM) in the assay with Staphylococcus aureus [6]; 6 µg/mL (≈ 12.7 µM) against Pseudomonas aeruginosa [7]; 12.5 µg/mL (≈ 26.4 µM) in the assay with Klebsiella pneumoniae [8]; 6 µg/mL (≈ 12.7 µM) against Candida albicans; 25 µg/mL (≈ 52.8 µM) with Aspergillus fumigatus. Moreover, the MIC was found to be 6 µg/mL (≈ 12.7 µM) against Aspergillus flavus and 12.5 µg/mL (≈ 26.4 µM) in assay [9]. Moreover, the “diameter of the inhibition zone (DIZ)” value in the assay with Candida albicans amounted to 20 mm; in the assay with Aspergillus fumigatus, 13 mm; in the assay with Aspergillus flavus it was 18 mm; in assay [9], 17 mm.
